Laboratory results published in article PMC5150537 (Nature Communications, 2016).

Target: T1, TmPPase (Thermotoga maritima, UniProt Q9S5X0)
T1 construct: gene hppA; N-terminally His6-tagged, plasmid pRS1024, expressed in Saccharomyces cerevisiae BJ1991, OGNPG-solubilised, homodimer
T1 sequence (Q9S5X0 1-726 limits assumed): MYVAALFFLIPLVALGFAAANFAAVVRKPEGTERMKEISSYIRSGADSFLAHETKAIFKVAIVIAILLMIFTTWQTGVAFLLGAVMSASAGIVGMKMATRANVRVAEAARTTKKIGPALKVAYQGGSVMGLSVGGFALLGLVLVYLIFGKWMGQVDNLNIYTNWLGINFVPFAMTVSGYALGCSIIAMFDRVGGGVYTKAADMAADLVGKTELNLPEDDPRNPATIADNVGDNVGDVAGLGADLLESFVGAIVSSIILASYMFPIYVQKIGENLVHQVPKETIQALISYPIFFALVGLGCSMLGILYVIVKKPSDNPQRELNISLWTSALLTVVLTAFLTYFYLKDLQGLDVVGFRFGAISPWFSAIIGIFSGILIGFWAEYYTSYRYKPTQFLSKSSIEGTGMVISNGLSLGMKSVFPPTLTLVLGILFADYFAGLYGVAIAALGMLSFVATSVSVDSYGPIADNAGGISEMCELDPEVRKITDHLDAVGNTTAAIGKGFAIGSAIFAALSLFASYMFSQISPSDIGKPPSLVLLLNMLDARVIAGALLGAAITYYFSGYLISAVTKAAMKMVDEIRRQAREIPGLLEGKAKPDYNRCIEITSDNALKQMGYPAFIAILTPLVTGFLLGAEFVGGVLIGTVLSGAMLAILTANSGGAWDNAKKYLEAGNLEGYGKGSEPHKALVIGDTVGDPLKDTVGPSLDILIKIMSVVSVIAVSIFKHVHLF
Test: X-ray crystallography, […] Å
Format: binding
Settings: active site, as Mg5IDP complex; Na+ bound at ion gate; pH 8.5 well solution; non-hydrolysable substrate analogue

## O=P(O)(O)NP(=O)(O)O [IDP, imidodiphosphate]
  X-ray crystallography, 3.5 Å: In TmPPase:IDP, an Mg5IDP-complex was fit into the positive Fo–Fc density in the hydrolytic centre
